Legend:
[1] = system: primary cortical neurons; assay: ATP assay (luciferase-based) after OGD; type: cell-based, rat
Protocol: (§1) Cortical neuronal cultures were prepared from 17-day-old Sprague Dawley rat embryos (Shimizu Laboratory Supplies) using methods described earlier (Maki T, et al, Annals of Clinical and Translational Neurology, 2014 August; 1(8):519-33). Briefly, cortices were dissected and dissociated. Cells were plated on dishes coated with poly-D-lysine in Dulbecco's modified Eagle's medium (DMEM) containing 5% heat-inactivated fetal bovine serum and 1% penicillin/streptomycin at a density of 200,000-250,000 cells/cm^2. At 24-hour after seeding, the medium was changed to Neurobasal (NB) medium containing 0.5 mM glutamine, 1% penicillin/streptomycin and 2% B27 supplement. Cultured neurons were used for experiments 14 days after seeding.
The medium was replaced with DMEM with no glucose. Then, the cells were placed into the sealed Anaero container with an Anaero Pack (Mitsubishi Gas Chemical Company) for 1.5-2 hours. […]
ATP levels in cell lysates were measured with luciferase chemiluminescence-based ATP assay reagent for cells (Toyo Ink) in accordance with the manufacturer's protocol. […] After incubating for 5 minutes at room temperature, luminescence of an aliquot of the solution was measured in a luminometer.
Cellular ATP levels were measured by the luciferase-based assay after 1.5 hour OGD. […]

[2] = system: C/EBP-homologous protein (CHOP); assay: Western blot of CHOP expression after tunicamycin treatment (ER stress); type: cell-based, rat; settings: 0.25 μg/mL tunicamycin for 6 hours
Protocol: as §1
(§2) Cells were collected and lysed in RIPA buffer (20 mM HEPES-KOH pH 7.4, 150 mM NaCl, 2 mM EDTA, 1% Nonidet-P40, 1% sodium deoxycholate) containing 10% 2-mercaptoethanol (Nacalai tesque) and 1% protease inhibitor (Nacalai tesque). Dissected brain samples were homogenized in the RIPA buffer with 2-mercaptomethanol and protease inhibitor. Samples were sonicated and centrifuged at 4° C., 15,000 rpm for 15 minutes, and the supernatants were collected. Proteins (15-20 μg per lane) were loaded, and were separated by 5-20% SDS-PAGE and transferred to polyvinylidene fluoride membranes (Millipore). […]

[3] = system: NeuN; assay: Western blotting of NeuN in cerebral cortex after transient focal cerebral ischemia; type: in vivo; settings: CB-17 mice, KUS121 before ischemia
Protocol: as §2, with “(Millipore). The following primary antibodies were used: β-actin (1:5000, Sigma Aldrich, A5441), CHOP (1:1000, Cell Signaling Technology, L63F7), NeuN (1:2000, Merck Millipore, ABN78), VCP (1:500, ABGENT, AP6920b). HRP-labeled secondary antibodies (Santa Cruz Biotechnology) were used for visualization by enhanced chemiluminescence (Nacalai tesque).” for “(Millipore).”
In CB-17 mice, distal middle cerebral artery occlusion (distal MCAO) was performed as previously described with minor modifications (Kasahara Y, Ihara M, Nakagomi T, et al. A highly reproducible model of cerebral ischemia/reperfusion with extended survival in CB-17 mice. Neuroscience Research, 2013 July; 76(3):163-8). […] During surgery, rectal temperature was monitored and controlled at 36.0-37.2° C. by a feedback-regulated heating pad. […]

[4] = system: C57BL/6 mice; assay: Accelerating rotarod test after transient focal cerebral ischemia (distal MCAO with hypoxia); type: in vivo; settings: KUS121 immediately after occlusion (100 mg/kg intravenously and 50 mg/kg intraperitoneally), 24 hours after occlusion, vehicle (5% Cremophor) 134.5±18.4, p<0.05, mean±SE
Protocol: (§3) Adult male C57BL/6 (C57BL/6NJcl) and CB-17 (CB-17/lcr-+/+Jcl) mice (6-7 weeks old) were purchased from Shimizu Laboratory supplies and Clea Japan, respectively. Animals were allowed access to food and water ad libitum.
(§4) In C57BL/6 mice, distal MCAO with hypoxia was performed as previously described with some modifications (Doyle K P, Fathali N, Siddiqui M R, et al. Distal hypoxic stroke: a new mouse model of stroke with high throughput, low variability and a quantifiable functional deficit. Journal of Neuroscience Methods, 2012 May 30; 207(1):31-40). Mice were placed in a large chamber containing 10% oxygen and 90% nitrogen after the occlusion of the distal MCA by a nylon suture. After 30 minutes of hypoxia, mice were returned to normoxic condition with removal of the nylon suture. Sham surgery were identical to the stroke surgery, except for the occlusion of the distal MCA.
Twenty-four hours after ischemia, mice were placed on an accelerating rotarod apparatus, in which the speed was accelerated from 0 to 40 rpm over 4 minutes. The time for which mice can remain on the rotating cylinder was measured. Three trials were performed and the best latency to fall was used. […]

[5] = system: C57BL/6 mice; assay: Infarction volume after transient focal cerebral ischemia (distal MCAO with hypoxia); type: in vivo; settings: KUS121 immediately after occlusion (100 mg/kg intravenously and 50 mg/kg intraperitoneally), 24 hours after ischemia, vehicle (5% Cremophor) 8.8±0.63%, p<0.05, mean±SE
Protocol: as §3, §4
Mice were deeply anesthetized and perfused transcardially with PBS and 4% PFA 24 hours after ischemia. The brains were extracted and post-fixed in 4% PFA for 48 hours. They were further cryoprotected in 20% sucrose until they sunk to the bottom of the vial. […] The area of the ipsilateral hemisphere and the area of the infarct on each section were measured using NIH imageJ software. […]

[6] = system: primary cortical neurons; assay: Cell viability test (CCK-8) after oxygen-glucose deprivation (OGD); type: cell-based, rat; settings: for neuronal viability after OGD: 2 hours OGD + 22 hours recovery, vehicle (DMSO) 18.1±1.9%, p<0.001, mean±SE
Protocol: as §1
(§5) The medium was replaced with DMEM with no glucose. Then, the cells were placed into the sealed Anaero container with an Anaero Pack (Mitsubishi Gas Chemical Company) for 1.5-2 hours. Following oxygen glucose deprivation, cells were switched to the normal medium and returned to a normoxic 5% CO2 incubator.
Cell viability was assessed by Cell Counting Kit-8 (CCK-8) assay (Dojindo Laboratories). The CCK-8 assay is based on the conversion of a water-soluble tetrazolium salt, 2-(2-methoxy-4-nitrophenyl)-3-(4-nitrophenyl)-5-(2,4-disulfophenyl)-2H-tetrazolium, monosodium salt (WST-8), to a water-soluble formazan dye upon reduction by dehydrogenases in the presence of an electron carrier. The cells were incubated with 10% CCK-8 solution for 1-2 hour at 37° C. Then the absorbance of the culture medium was measured with a microplate reader at a test wavelength of 450 nm and a reference wavelength of 630 nm.
To assess protective effects of KUS121 on neurons in ischemic conditions, cell viability tests were performed after oxygen-glucose deprivation (OGD) in both the presence and the absence of KUS121 (FIG. 1, top). OGD was performed in rat cortical primary neuronal cultures for 2 hours with subsequent recovery at 21% 02 and glucose-containing media for further 22 hours. Control neurons were kept at 21% 02 in glucose-containing media for 24 hours. […]

[7] = system: primary cortical neurons; assay: MAP2 immunocytochemistry after OGD; type: cell-based, rat; settings: 100 μM KUS, vehicle (DMSO) 0.87±0.13%, p<0.05, mean±SE
Protocol: as §1, §5
The cells were washed twice with phosphate buffered saline (PBS), followed by 4% paraformaldehyde (PFA) for 15 minutes. After being further washed twice with PBS, they were incubated with PBS/0.1% Tween (10 min) and blocked with 3% BSA/PBS (1 hour at room temperature). […]

[8] = system: CB-17 mice; assay: Infarction volume after transient focal cerebral ischemia (distal MCAO); type: in vivo; settings: KUS121 immediately before the ischemia, vehicle (5% Cremophor) 11.8±0.60%, p<0.05, mean±SE
Protocol: as §3
In CB-17 mice, distal middle cerebral artery occlusion (distal MCAO) was performed as previously described with minor modifications (Kasahara Y, Ihara M, Nakagomi T, et al. A highly reproducible model of cerebral ischemia/reperfusion with extended survival in CB-17 mice. Neuroscience Research, 2013 July; 76(3):163-8). In brief, general anesthesia was induced and maintained by inhalation of 4% and 1.5% isoflurane (Pfizer), respectively. Mice were placed in a lateral position, and a skin incision was made between the left eyeball and the left external auditory canal. The left salivary gland and a part of the temporalis muscle were resected to allow visualization of the middle cerebral artery (MCA) through the cranial bone. A burr hole was made in the cranial bone. […] During surgery, rectal temperature was monitored and controlled at 36.0-37.2° C. by a feedback-regulated heating pad.
Mice were deeply anesthetized and perfused transcardially with PBS and 4% PFA 24 hours after ischemia. […] The area of the ipsilateral hemisphere and the area of the infarct on each section were measured using NIH imageJ software. […]

## Cc1cc(F)ccc1-c1ccc(N=Nc2cc(S(=O)(=O)[O-])c3ccccc3c2N)cn1.[Na+] [KUS121, 4-amino-3-[6-(4-fluoro-2-methylphenyl)pyridine-3-ylazo]naphthalene-1-sulfonic acid sodium salt]
[1]; 100 μM KUS, after 1.5 hour OGD, vehicle (DMSO) 14.3±1.1%, p<0.001, mean±SE
  ATP levels: 28.0±2.3%
[1]; without OGD
  ATP levels without OGD: no effect
[2]
  expression of CHOP: suppressed
[3]
  expression of NeuN in cerebral cortex: preserved
[4]
  rotarod retention time: 201.0 ± 21.8 s
[5]
  infarction volumes: 4.7±1.70%
[6]; 100 μM KUS throughout
  neuronal viability after OGD: 43.5±3.1%
[6]; 200 μM KUS throughout
  neuronal viability after OGD: 42.4±3.7%
[6]; without OGD
  neuronal viability without OGD: no effect
[7]
  MAP2-positive area: 2.64±0.41%
[8]
  infarction volumes: 5.74±1.64%

Source: US20210137950A1, “Pharmaceutical Composition for Treating Cerebral Infarction” (Kyoto University, priority 2018, published 2021)
